Laboratory results: patent US20070066546A1, “Compositions for the reversible thioesterification of signaling proteins and methods of using same” (priority 2005, published 2007)

Key:
[1] = tested on: mouse embryonic fibroblast; settings: cited from earlier work
[2] = tested on: E. coli strain TA4112 (OxyR-null); experiment: Hydroperoxidase I (HPI) assay in crude extracts of treated OxyR-null bacteria; format: cell-based; settings: OxyR-null cells, 100 μM, 60 min
Experimental: (§1) Hydroperoxidase I (HPI) Assay. The peroxidase activity of HPI was measured as described (Hausladen, A. et al. (1996) Cell 86, 719-729), in 50 mM potassium phosphate buffer (pH 7.5) containing 0.1 mM EDTA, 10 mM H2O2, and 0.2 mg/ml o-dianisidine, by measuring the increase in absorbance at 460 nm (Clairborne, A. & Fridovich, I. (1979) Biochemistry 18, 2324-2329). An extinction coefficient of 11.3 mM^−1 cm^−1 was used to calculate the specific activity of HPI ((1993) in Worthington Enzyme Manual: Peroxidase, ed. Worthington, V. (Worthington Biochemical Corporation, Freehold, N.J.)).
(§2) HPI, the enzyme encoded by the katG gene, protects bacterial cells against hydrogen peroxide-induced stress. E. coli strains RK4936 (wild-type) and TA4112 (OxyR-null) were grown aerobically to an A600 of 0.5 and then treated with 100 μM F094 or avicin D or G for 60 min. Cells were harvested by centrifugation, and the peroxidase activity in crude extracts was determined (see Materials and Methods). Wild-type (RK4936) and OxyR-null (TA4112) strains of bacteria were treated with avicins and assayed for HPI activity.

[3] = tested on: E. coli strain RK4936 (wild-type); experiment: Hydroperoxidase I (HPI) assay in crude extracts of treated wild-type bacteria; format: cell-based; settings: wild-type cells, 100 μM, 60 min
Experimental: as §1, §2

[4] = molecular target: OxyR (Escherichia coli, UniProt P0ACQ4); experiment: In vitro transcription and primer extension with avicin-modified OxyR (katG and oxyS templates); format: biochemical, E. coli; settings: for relative potency as activator of OxyR (in vitro transcriptional activity): comparison between F094, avicin D and avicin G; for OxyR activation as assessed by in vitro transcriptional activation of katG and oxyS: reduced OxyR, strictly anaerobic conditions, avicins:OxyR 1:10-100:1
OxyR, sequence (P0ACQ4 whole entry): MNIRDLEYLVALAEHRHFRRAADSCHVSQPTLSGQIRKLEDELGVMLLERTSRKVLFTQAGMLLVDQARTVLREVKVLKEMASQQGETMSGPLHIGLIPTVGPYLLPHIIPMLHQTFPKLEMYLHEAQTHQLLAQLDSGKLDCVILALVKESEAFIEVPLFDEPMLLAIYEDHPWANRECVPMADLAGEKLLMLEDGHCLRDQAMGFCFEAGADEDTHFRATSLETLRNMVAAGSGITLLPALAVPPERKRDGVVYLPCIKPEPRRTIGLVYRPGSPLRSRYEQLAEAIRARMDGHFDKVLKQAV
Experimental: Reduction of OxyR. The reduced form of OxyR was generated by addition of a large excess of DTT (200 mM) for 1 h, followed by exhaustive dialysis (25 mM potassium phosphate/250 mM potassiumsulfate/1 mM magnesium sulfate/100 μM DTPA, pH 8) in an anaerobic glove box. Removal of DTT was monitored by the color change after addition of 5,5′-dithionitrobenzoic acid to an aliquot of the dialysis buffer.
Treatment of OxyR with Avicins. Reduced OxyR was treated with a 10-fold molar excess of F094 or purified avicin D or G to generate avicin-modified OxyR. The reaction was performed under anaerobic conditions for 1 h, followed by dialysis.
In Vitro Transcription and Primer Extension. In vitro transcription with the various modified forms of OxyR was performed as described (Kim, S. O., et al. (2002) Cell 109, 383-396). Plasmid pBT22 was used as the katG template and pUCOXYS, a plasmid containing the oxyS-coding region cloned into pUC19, was used as the oxyS template. Where indicated, avicin-modified forms of OxyR were reduced with 200 mM DTT. Primer extension assays were performed by using AMV reverse transcriptase (Promega), according to instructions supplied by the manufacturer.
Avicin modified OxyR was incubated with plasmids containing the katG or oxyS genes followed by primer extension (see Materials and Methods). After primer extension, samples were untreated or treated with DTT before gel analysis. Band intensities were quantified (phosphoimager), and data are plotted at top as percent maximal activation (n=2-3). At bottom, corresponding raw data from an individual experiment are depicted.

| SMILES | decrease in cyclin D1 protein levels ([1]; NAC treatment) | increase in p27 protein levels ([1]; NAC treatment) | increase in intracellular low-molecular-weight thiols ([1]; treatment for 12 h) | HPI activity [2] | HPI activity [3] | relative potency as activator of OxyR (in vitro transcriptional activity) [4] | OxyR activation as assessed by in vitro transcriptional activation of katG and oxyS [4] |
| --- | --- | --- | --- | --- | --- | --- | --- |
| CC(=O)N[C@@H](CS)C(=O)O [NAC, N-acetyl-L-cysteine] | 70% | 3-4 fold | 6 fold | – | – | – | – |
| C=C[C@](C)(O)CC/C=C(\CO)C(=O)O[C@H]1[C@H](O)[C@@H](O)[C@H](O[C@@](C)(C=C)CC/C=C(\CO)C(=O)O[C@H]2C[C@]3(C(=O)O[C@@H]4O[C@H](CO)[C@@H](O)[C@H](O)[C@H]4O[C@@H]4O[C@@H](C)[C@H](O[C@@H]5O[C@@H](CO)[C@H](O)[C@H]5O)[C@@H](O[C@@H]5O[C@H](CO)[C@@H](O)[C@H](O)[C@H]5O)[C@H]4O)[C@H](O)C[C@]4(C)C(=CC[C@@H]5[C@@]6(C)CC[C@H](O[C@@H]7O[C@H](CO[C@@H]8O[C@H](C)[C@H](O)[C@H](O)[C@H]8O[C@@H]8OC[C@@H](O)[C@H](O)[C@H]8O)[C@@H](O)[C@H](O)[C@H]7NC(C)=O)C(C)(C)[C@@H]6CC[C@]54C)[C@@H]3CC2(C)C)O[C@@H]1C [avicin D] | – | – | – | no increase in activity | doubled HPI activity | more potent activators than avicin G | resulted in OxyR activation |
| C=C[C@](C)(O)CC/C=C(\C)C(=O)O[C@H]1[C@H](O)[C@@H](O)[C@H](O[C@@](C)(C=C)CC/C=C(\CO)C(=O)O[C@H]2C[C@]3(C(=O)O[C@@H]4O[C@H](CO)[C@@H](O)[C@H](O)[C@H]4O[C@@H]4O[C@@H](C)[C@H](O[C@@H]5O[C@@H](CO)[C@H](O)[C@H]5O)[C@@H](O[C@@H]5O[C@H](CO)[C@@H](O)[C@H](O)[C@H]5O)[C@H]4O)[C@H](O)C[C@]4(C)C(=CC[C@@H]5[C@@]6(C)CC[C@H](O[C@@H]7O[C@H](CO[C@@H]8O[C@H](C)[C@H](O)[C@H](O)[C@H]8O[C@@H]8OC[C@@H](O)[C@H](O)[C@H]8O)[C@@H](O)[C@H](O)[C@H]7NC(C)=O)C(C)(C)[C@@H]6CC[C@]54C)[C@@H]3CC2(C)C)O[C@@H]1C [avicin G] | – | – | – | no increase in activity | doubled HPI activity | lower | resulted in OxyR activation |
